Experimental data taken from patent publication US20090247520A1, “INHIBITORS OF ANTIGEN RECEPTOR-INDUCED NF-kappa B ACTIVATION” (The Burnham Institute for Medical Research, priority 2008, published 2009).

Legend:
IKK-beta = target: T1, IKK-beta (Homo sapiens, UniProt O14920); test: In vitro kinase assay IKK-beta (HTScan kit); assay type: biochemical; settings: CID-2858522 up to 8 μM; STS 0.5 μM; IKK inhibitor 10 μM
T1 construct: purchased Cell Signaling, Danvers, Mass
Procedure: CID-2858522 (8 μM) were tested in in vitro IKK beta (A), PKC beta […] or PKC theta (C) kinase assays using kits. STS (0.5 μM), IKK inhibitor (10 μM) and PKC inhibitor (1 μM) were used as positive controls.
In Vitro Kinase Assays. PKC-beta, PKC-theta and IKK-beta in vitro kinase assays were performed using the HTScan Kinase Assay Kit (Cell Signaling, Danvers, Mass.) according to manufacturer's protocols. A panel of >300 kinases was screened by Ambit, Inc.

TRAF1 induction = test: TRAF1 expression in anti-IgM-stimulated CLL B-cells (immunoblot); assay type: cell-based, human; settings: 24 hr after stimulation
Procedure: (A) Isolated mouse primary splenocytes were cultured with anti-CD3/anti-CD28 (0.3 μg/mL each) or anti-IgM (3 μg/mL) for 48 h, then 1 μCi 3H-Thymidine was added for 12 h and incorporation into DNA was measured, expressing data as fold increase above unstimulated cells (mean±SD; n=3). (B-D) Primary splenocytes were pretreated for 2 h with IKK inhibitor, BMS-335541 (B), PKC inhibitor, Bisindolylmaleimide I (C) or CID-2858522 (D), then stimulated with anti-CD3/anti-CD28 (0.3 μg/mL) or anti-IgM (3 μg/mL) for 48 h. 1 μCi 3H-Thymidine was added for 12 h and incorporation into DNA was measured, expressing data as percent inhibition relative to control cells treated with DMSO (mean±SD; n=3). […] Levels of TRAF1 and β-actin were assessed by immunoblotting, quantified by densitometry and TRAF1 results reported relative to control cells, after normalization for β-actin (mean±SD). […] Then nuclear extracts were prepared and p65-DNA-binding activity was measured (mean±SD; n=3).
Chronic Lymphocytic Leukemia (CLL) cell culture. Peripheral blood mononuclear cells from CLL patients were obtained under IRB approval from whole blood by Ficoll density gradient centrifugation and cultured with RPMI 1640 Medium supplemented with 10% FBS and antibiotics.

[1] = tested on: CARMA/MALT1/Bcl-10 complex; test: Co-immunoprecipitation of CARMA1/CARMA3 with Bcl-10, MALT, TRAF6, IKKγ, Caspase-8 in transfected HEK293 cells; assay type: cell-based; settings: for inhibition of PMA-induced association of CARMA1 or CARMA3 with Bcl-10, MALT, TRAF6, IKKγ, Caspase-8: CID-2858522 4 μM, Bisindolylmaleimide I 1 μM
Procedure: FIG. 7. CID-285852 inhibits IKKβ phosphorylation induced by PKC activators. (A) HEK293 cells were cultured in 0.5% FBS medium for 24 h and then treated with CID-2858522 (4 μM) or PKC inhibitor, Bisindolylmaleimide I (1 μM) for 2 hrs followed by PMA/Ionomycin (10 ng/mL; 5 ng/mL) for 2 h. Cell lysates were subjected to immunoprecipitation using anti-CARMA1 antibody and analyzed by immunoblotting with anti-phospho-CARMA1 antibody or anti-CARMA1 antibody. (B-E) HEK293 cells were transfected with plasmids encoding myc-CARMA1 in combination with plasmids encoding various other proteins including Caspase-8 (cys287ala) (B), HA-IKK-γ (C), HA-TAK1 (D), and TRAF6 (E). After 36 h. cells were cultured in 0.5% FBS medium for 12 h and then treated with CID-2858522 (4 μM) or Bisindolylmaleimide I (1 μM) for 2 hrs, followed by PMA/Ionomycin treatment (10 ng/mL; 5 ng/mL) for 2 hrs. Cell lysates were immunoprecipated using anti-myc antibody and analyzed by immunoblotting using anti-Caspase8 (B), anti-HA (C,D), or anti-TRAF6 (E) antibodies. (F) HEK293 cells were treated with CID-2858522 (4 μM) or PKC inhibitor (1 μM) followed by PMA/Ionomycin (10 ng/mL; 5 ng/mL) treatment for 2 hrs. Cell lysates were normalized for protein content and analyzed by immunoblotting using anti-FLIP and anti-alpha-tubulin antibodies. […] Cell lysates were immunoprecipitated using anti-IKK-β and analyzed by immunoblotting using anti-phospho-IKK-β antibody or anti-IKK-β antibody (as loading control). Approximate molecular weights of all proteins are indicated in kiloDaltons.
Mapping the site of action of CID-2858522 in the antigen receptor-activated NF-κB pathway. […] To characterize the effects of CID-2858522 on these possible targets of the antigen receptor pathway for NF-κB activation, we first evaluated PMA-induced phosphorylation of Carmal, by phospho-specific antibody immunoblotting, finding no effect of CID-2858522 on this molecular event that initiates formation of the CBM complex (FIG. 7A). […]

T1 sequence (O14920 whole entry): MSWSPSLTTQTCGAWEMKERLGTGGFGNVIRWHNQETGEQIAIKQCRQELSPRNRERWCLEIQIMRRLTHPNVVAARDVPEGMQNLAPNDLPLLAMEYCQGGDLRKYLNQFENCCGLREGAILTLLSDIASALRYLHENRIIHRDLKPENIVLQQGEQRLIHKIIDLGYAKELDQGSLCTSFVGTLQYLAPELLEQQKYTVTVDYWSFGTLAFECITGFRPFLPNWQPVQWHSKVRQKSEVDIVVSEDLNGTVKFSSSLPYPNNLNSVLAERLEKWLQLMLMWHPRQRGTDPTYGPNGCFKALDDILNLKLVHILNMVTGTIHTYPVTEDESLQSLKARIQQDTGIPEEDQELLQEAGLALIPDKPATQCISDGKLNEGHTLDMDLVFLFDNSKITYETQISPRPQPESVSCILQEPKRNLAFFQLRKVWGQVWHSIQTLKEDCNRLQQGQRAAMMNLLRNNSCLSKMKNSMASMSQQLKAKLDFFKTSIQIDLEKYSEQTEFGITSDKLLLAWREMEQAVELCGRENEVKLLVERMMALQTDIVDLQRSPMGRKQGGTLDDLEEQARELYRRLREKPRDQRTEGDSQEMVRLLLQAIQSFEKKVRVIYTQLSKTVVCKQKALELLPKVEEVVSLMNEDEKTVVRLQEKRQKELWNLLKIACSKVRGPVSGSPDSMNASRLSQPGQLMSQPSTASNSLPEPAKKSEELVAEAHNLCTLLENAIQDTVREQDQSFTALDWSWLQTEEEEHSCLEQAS

SMILES | inhibition of IKK-beta kinase activity (IKK-beta) | inhibition of anti-IgM-stimulated TRAF1 expression (TRAF1 induction) | inhibition of PMA-induced association of CARMA1 or CARMA3 with Bcl-10, MALT, TRAF6, IKKγ, Caspase-8 [1] | disruption of CARMA/MALT1/Bcl-10 (CMB) complex formation ([1]; PMA/Ionomycin, cells or lysate)
Cc1ccc2nc(NCCN)c3ncc(C)n3c2c1 [BMS-345541, reference compound] | potent inhibition |  |  | 
CN(C)CCCn1cc(C2=C(c3c[nH]c4ccccc34)C(=O)NC2=O)c2ccccc21 [Bisindolylmaleimide I, reference compound] |  | also inhibited | inhibited | 
Cc1cc2nc(NCCCO)n(CC(=O)c3cc(C(C)(C)C)c(O)c(C(C)(C)C)c3)c2cc1C [Compound 1, 2-(2-(3-Hydroxypropylamino)-5,6-dimethyl-1H-benzo[d]imidazol-1-yl)-1-(3,5-di-tert-butyl-4-hydroxyphenyl)ethanone] | failed to suppress | inhibited | not by CID-2858522 | did not disrupt
